In one experiment the test system is respiration in cats. As to conditions: Garner, et al. 1989; cited from earlier work.
Experiment [1] deals with respiration in normal male volunteers. As to conditions: Rapoport, et al. 1988; cited from earlier work.
The subject of experiment [2] is patients suffering from obstructive sleep apnea. Briefly: Clinical experience: single dose of buspirone at bedtime in patients with obstructive sleep apnea. Format: in vivo, human (patients). The source says: The effectiveness of azapirone treatment of patients suffering from sleep apneas can be exemplified by clinical experience with buspirone. […] One of the most consistent physiological measurements of improvement was a 10 to 20% increase in blood oxygen levels, an indication of improved respiratory efficiency.

Setting [3] is: single dose at bedtime, patients suffering from obstructive sleep apnea.

SMILES strings stand for the structures.

For the molecule `O=C1CC2(CCCC2)CC(=O)N1CCCCN1CCN(c2ncccn2)CC1` [buspirone], in the experiment on respiration in cats, the effect on respiration result was “stimulatory effect on respiration”. Besides, the effect on respiration entry in experiment [1] is “stimulatory effect on respiration”. Also, in experiment [2] (patients suffering from sleep apneas), the “effectiveness in treating sleep apneas” value is “effective”. In experiment [2] (setting [3]), the “episodes of sleep disturbance” value is “marked reduction in episodes of sleep disturbance”, the sleep efficiency result is “increased sleep efficiency” and the total sleep time result is “gain in total sleep time”.
